Results taken from ChEMBL document CHEMBL6103648, “AI-Driven Discovery of Highly Specific and Efficacious hCES2A Inhibitors for Ameliorating Irinotecan-Triggered Gut Toxicity” (J Med Chem, 2025).
Values after ≈ are worked out from the molar mass of the structure shown. Active and inactive are the calls of the source. The calls are words filed in the database; no cut-off is given here.

Columns and labels:
[1] = Drug distribution in duodenum of C57BL/6J mouse at 100 mg/kg, po administered as single dose measured for 0.5 to 3 hrs by UHPLC-Q-Orbitrap HRMS analysis; assay type: ADME, organism-based; details: in vivo, time 0.5-3 hrs
[2] = Sub-acute toxicity in C57BL/6J mouse assessed as change in CREA level at 100 mg/kg/day, po treated for 14 days consecutively; assay type: organism-based; details: in vivo, 336 h, time 14 day
Mus musculus [3] = assay: Inhibition of irinotecan-induced anti-tumor activity in C57BL/6J mouse bearing tumor cells assessed as increase in tumor weight at 25 to 50 mg/kg/day, po treated for 14 days; assay type: functional, organism-based; details: dose 25-50 mg/kg/day, time 14.0 day
[4] = Inhibition of human pancreatic lipase using DDAO-ol as substrate preincubated for 3 mins followed by substrate addition by fluorescence based assay
Mus musculus [5] = assay: Inhibition of irinotecan-triggered gut toxicity in C57BL/6J mouse bearing tumor cells assessed as increase in claudin-1 level in colon tissue at 25 to 50 mg/kg/day, po treated for 14 days by immunofluorescence based analysis; assay type: functional, organism-based; details: dose 25-50 mg/kg/day, time 14.0 day
Mus musculus [6] = assay: Inhibition of irinotecan-triggered gut toxicity in C57BL/6J mouse bearing tumor cells assessed as decrease in serum CREA level at 25 to 50 mg/kg/day, po treated for 14 days; assay type: functional, organism-based; details: dose 25-50 mg/kg/day, time 14.0 day
Prothrombin = Prothrombin (Homo sapiens, UniProt P00734); assay: Inhibition of human Thrombin using Z-GGRAMC as substrate preincubated for 3 mins followed by substrate addition by fluorescence based assay
Homo sapiens [7] = species: Homo sapiens; assay: Covalent binding affinity to human CES2A Ser228 catalytic site assessed as covalent modification at 10 uM incubated for 4 hrs by nano-LC-MS/MS analysis
Mus musculus [8] = assay: Inhibition of irinotecan-triggered gut toxicity in C57BL/6J mouse bearing tumor cells assessed as decrease in DAI score at 25 to 50 mg/kg/day, po treated for 14 days; assay type: functional, organism-based; details: dose 25-50 mg/kg/day, time 14.0 day
[9] = Chemical stability in artificial gastrointestinal fluid at 10 uM measured upto 120 mins by UPLC-MS/MS analysis; assay type: physicochemical; details: 2 h
[10] = Apparent permeability across basal to apical side in human Caco-2 cells at 50 uM incubated for 120 mins by UPLC-MS/MS analysis; assay type: ADME, cell-based
Mus musculus [11] = assay: Inhibition of irinotecan-triggered gut toxicity in C57BL/6J mouse bearing tumor cells assessed as increase in occludin level in colon tissue at 25 to 50 mg/kg/day, po treated for 14 days by immunofluorescence based analysis; assay type: functional, organism-based; details: dose 25-50 mg/kg/day, time 14.0 day
Caco-2 = assay: Cytotoxicity against human Caco-2 cells at 100 uM incubated for 24 hrs by CCK8 assay; assay type: toxicity, cell-based; details: caco-2, 24 h
Cytochrome P450 2E1 = Cytochrome P450 2E1 (Homo sapiens, UniProt P05181); assay: Inhibition of CYP2E1 in human liver microsomes using chlorzoxazone as substrate upto 10 uM; assay type: ADME, Microsome
[12] = Drug distribution in ileum of C57BL/6J mouse at 100 mg/kg, po administered as single dose measured for 0.5 to 3 hrs by UHPLC-Q-Orbitrap HRMS analysis; assay type: ADME, organism-based; details: in vivo, time 0.5-3 hrs
Homo sapiens [13] = species: Homo sapiens; assay: Inhibition of human CES2A assessed as decrease in residual activity upto 1.6 nM; details: time <= 30.0 min
[14] = Apparent permeability across basal to apical side in human Caco-2 cells at 100 uM incubated for 120 mins by UPLC-MS/MS analysis; assay type: ADME, cell-based
[15] = Drug distribution in stomach of C57BL/6J mouse at 100 mg/kg, po administered as single dose measured for 0.5 to 3 hrs by UHPLC-Q-Orbitrap HRMS analysis; assay type: ADME, organism-based; details: in vivo, time 0.5-3 hrs
Mus musculus [16] = assay: Inhibition of irinotecan-triggered gut toxicity in C57BL/6J mouse bearing tumor cells assessed as decrease in SN38 level in colon tissue at 25 to 50 mg/kg/day, po treated for 14 days; assay type: functional, organism-based; details: dose 25-50 mg/kg/day, time 14.0 day
Mus musculus [17] = assay: Inhibition of irinotecan-triggered gut toxicity in C57BL/6J mouse bearing tumor cells assessed as decrease in serum UREA level at 25 to 50 mg/kg/day, po treated for 14 days; assay type: functional, organism-based; details: dose 25-50 mg/kg/day, time 14.0 day
Dipeptidyl peptidase 4 = Dipeptidyl peptidase 4 (Homo sapiens, UniProt P27487); assay: Inhibition of human serum DPP-IV using GP-BAN as substrate preincubated for 3 mins followed by substrate addition by fluorescence based assay
[18] = Drug distribution in deep organs of C57BL/6J mouse at 100 mg/kg, po administered as single dose measured for 0.5 to 3 hrs by UHPLC-Q-Orbitrap HRMS analysis; assay type: ADME, organism-based, Deep organ; details: in vivo, time 0.5-3 hrs
[19] = Inhibition of human CES1A using NLMe as substrate incubated for 3 mins by chemiluminescence analysis
HepG2 = assay: (§1) Inhibition of CES2A in human HepG2 cells using NCEN as substrate assessed as decrease in green fluorescence preincubated fir 1 hr followed by substrate addition measured after 45 mins by Hoechst33342 staining based analysis; assay type: cell-based; details: time 105.0 min
[20] = as §1; assay type: cell-based
[21] = Drug distribution in colon of C57BL/6J mouse at 100 mg/kg, po administered as single dose measured for 0.5 to 3 hrs by UHPLC-Q-Orbitrap HRMS analysis; assay type: ADME, organism-based; details: in vivo, time 0.5-3 hrs
Cholinesterase = Cholinesterase (Homo sapiens, UniProt P06276); assay: Inhibition of human BuChE using BTCI as substrate incubated for 3 mins by Ellman's method
Cytochrome P450 2D6 = Cytochrome P450 2D6 (Homo sapiens, UniProt P10635); assay: Inhibition of CYP2D6 in human liver microsomes using dextromethorphan as substrate upto 10 uM; assay type: ADME, Microsome
[22] = Permeability across basal to apical side in human Caco-2 cells assessed as cumulative penetration amount at 25 uM incubated for 120 mins by UPLC-MS/MS analysis; assay type: ADME, cell-based; details: caco-2, 2 h
[23] = Efflux ratio of apparent permeability across basal to apical side over apical to basal side in human Caco-2 cells at 25 uM incubated for 120 mins by UPLC-MS/MS analysis; assay type: ADME, cell-based
[24] = Sub-acute toxicity in C57BL/6J mouse assessed as abnormality in stomach at 100 mg/kg/day, po treated for 14 days consecutively by H and E staining based analysis; assay type: organism-based; details: in vivo, 336 h, time 14 day
[25] = Aqueous solubility of compound by UPLC-MS/MS analysis; assay type: physicochemical; details: buffer
[26] = Efflux ratio of apparent permeability across basal to apical side over apical to basal side in human Caco-2 cells at 100 uM incubated for 120 mins by UPLC-MS/MS analysis; assay type: ADME, cell-based

Sequence of Cytochrome P450 2D6 (P10635 whole entry): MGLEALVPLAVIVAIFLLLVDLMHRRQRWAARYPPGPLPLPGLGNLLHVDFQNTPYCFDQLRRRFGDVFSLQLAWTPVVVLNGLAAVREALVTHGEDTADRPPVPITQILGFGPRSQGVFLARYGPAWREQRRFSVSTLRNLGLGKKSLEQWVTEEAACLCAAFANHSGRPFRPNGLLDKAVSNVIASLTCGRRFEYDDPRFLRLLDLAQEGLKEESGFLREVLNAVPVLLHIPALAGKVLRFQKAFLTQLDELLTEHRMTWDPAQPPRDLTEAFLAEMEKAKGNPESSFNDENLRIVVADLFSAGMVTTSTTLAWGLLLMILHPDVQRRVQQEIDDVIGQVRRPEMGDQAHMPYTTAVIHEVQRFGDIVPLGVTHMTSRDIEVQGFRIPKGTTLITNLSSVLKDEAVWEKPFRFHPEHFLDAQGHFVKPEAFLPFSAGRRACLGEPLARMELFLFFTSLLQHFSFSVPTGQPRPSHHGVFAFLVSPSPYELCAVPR
Sequence of Cytochrome P450 2E1 (P05181 whole entry): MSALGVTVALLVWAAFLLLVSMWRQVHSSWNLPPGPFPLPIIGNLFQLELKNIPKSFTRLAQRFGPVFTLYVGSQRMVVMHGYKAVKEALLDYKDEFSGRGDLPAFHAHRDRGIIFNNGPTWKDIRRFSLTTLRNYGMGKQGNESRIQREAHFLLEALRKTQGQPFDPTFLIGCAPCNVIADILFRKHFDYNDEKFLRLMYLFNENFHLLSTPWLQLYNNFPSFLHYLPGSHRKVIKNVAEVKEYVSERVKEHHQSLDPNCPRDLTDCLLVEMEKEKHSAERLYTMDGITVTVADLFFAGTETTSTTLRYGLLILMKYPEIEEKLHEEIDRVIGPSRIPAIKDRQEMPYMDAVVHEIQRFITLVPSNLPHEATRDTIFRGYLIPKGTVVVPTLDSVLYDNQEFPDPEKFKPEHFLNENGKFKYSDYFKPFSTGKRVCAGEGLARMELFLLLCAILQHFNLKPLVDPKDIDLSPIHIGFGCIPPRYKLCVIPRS
Sequence of Dipeptidyl peptidase 4 (P27487 whole entry): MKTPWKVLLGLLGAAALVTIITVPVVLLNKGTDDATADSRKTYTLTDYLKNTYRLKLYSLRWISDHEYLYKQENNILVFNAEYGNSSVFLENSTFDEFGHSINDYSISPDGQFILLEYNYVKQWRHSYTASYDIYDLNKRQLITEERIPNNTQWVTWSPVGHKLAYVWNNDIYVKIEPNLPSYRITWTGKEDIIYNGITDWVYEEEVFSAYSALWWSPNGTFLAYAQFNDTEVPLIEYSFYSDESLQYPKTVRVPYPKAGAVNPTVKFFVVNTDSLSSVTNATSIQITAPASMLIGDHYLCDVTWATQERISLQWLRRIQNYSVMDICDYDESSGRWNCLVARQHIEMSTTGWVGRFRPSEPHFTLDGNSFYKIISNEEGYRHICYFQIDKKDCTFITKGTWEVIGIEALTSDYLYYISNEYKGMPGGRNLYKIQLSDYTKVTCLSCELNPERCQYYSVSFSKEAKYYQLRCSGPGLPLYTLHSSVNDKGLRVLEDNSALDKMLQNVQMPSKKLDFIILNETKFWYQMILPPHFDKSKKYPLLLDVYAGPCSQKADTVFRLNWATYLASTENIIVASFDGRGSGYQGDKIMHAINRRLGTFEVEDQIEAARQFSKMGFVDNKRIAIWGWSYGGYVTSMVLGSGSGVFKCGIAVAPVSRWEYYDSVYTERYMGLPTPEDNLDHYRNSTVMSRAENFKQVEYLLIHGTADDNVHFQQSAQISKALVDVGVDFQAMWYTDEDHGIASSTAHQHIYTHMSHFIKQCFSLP
Sequence of Cholinesterase (P06276 whole entry): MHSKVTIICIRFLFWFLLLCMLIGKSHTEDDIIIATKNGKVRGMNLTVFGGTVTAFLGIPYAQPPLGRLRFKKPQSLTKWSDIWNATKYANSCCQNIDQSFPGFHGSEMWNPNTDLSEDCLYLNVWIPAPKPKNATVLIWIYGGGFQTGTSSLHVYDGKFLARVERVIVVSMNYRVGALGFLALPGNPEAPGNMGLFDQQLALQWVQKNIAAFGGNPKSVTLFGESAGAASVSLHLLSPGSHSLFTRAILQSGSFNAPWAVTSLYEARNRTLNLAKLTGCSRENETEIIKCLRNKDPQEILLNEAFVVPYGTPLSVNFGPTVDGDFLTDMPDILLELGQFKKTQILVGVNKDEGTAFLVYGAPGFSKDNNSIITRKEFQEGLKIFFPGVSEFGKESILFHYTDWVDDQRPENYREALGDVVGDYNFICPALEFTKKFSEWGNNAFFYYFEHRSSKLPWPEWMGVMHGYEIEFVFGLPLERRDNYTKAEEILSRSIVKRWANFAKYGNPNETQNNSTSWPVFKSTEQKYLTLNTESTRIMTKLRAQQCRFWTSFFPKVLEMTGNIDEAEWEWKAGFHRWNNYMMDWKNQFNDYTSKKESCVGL

In the case of `CCN(C)C(=O)Oc1ccc(C(=O)N2CCC(Cc3ccccc3)CC2)cc1OC`, the Drug uptake [1] is reported as “Active”, the Activity [2] is reported as “Non-toxic” and the inhibition (Mus musculus [3]) is reported as “inactive”. The IC50 [4] was greater than 10 µM, the inhibition (Mus musculus [5]) was “Active” and the inhibition (Mus musculus [6]) was “Active”. For the same compound, the IC50 (Prothrombin) was greater than 10 µM, the Activity (Homo sapiens [7]) was “Active; Compound Exhibited As Covalent Inhibitor” and the inhibition (Mus musculus [8]) was “Active”. For the same compound, the Stability [9] was “Stable”, the Papp B→A at 2 h, 50 µM [10] was 10.5 ×10⁻⁶ cm/s and the inhibition (Mus musculus [11]) was “Active”. The Activity (Caco-2) was “Non-toxic”, the “inhibition (INH)” value (Cytochrome P450 2E1) was “Not_active” and the Drug uptake [12] was “Active”. The inhibition (Homo sapiens [13]) was “Time-dependent-effect”, the Papp B→A at 2 h, 100 µM [14] was 7.8 ×10⁻⁶ cm/s and the Drug uptake [15] was “Active”. For the same compound, the inhibition (Mus musculus [16]) was “Active”, the inhibition (Mus musculus [17]) was “Active” and the IC50 (Dipeptidyl peptidase 4) was greater than 10 µM. For the same compound, the Drug uptake [18] was “Not_active”, the IC50 [19] was 4.4 µM and the inhibition (HepG2) was “Dose-dependent-effect”. The IC50 [20] was 0.00036 µM, the Drug uptake [21] was “Active” and the IC50 (Cholinesterase) was 3.06 µM. The “inhibition (INH)” value (Cytochrome P450 2D6) was “Not_active”, the Activity [22] was 2.03 µM and the efflux ratio at 2 h, 25 µM [23] was 0.64. The Activity [24] was “Non-toxic”, the solubility [25] was 32 µg/mL (≈ 78 µM) and the efflux ratio at 2 h, 100 µM [26] was 0.66.
